The record followed here is PubChem BioAssay AID1996.

Converted amounts (≈) assume the structure as drawn.

For the series the following is noted: buffer; pH 7.4; 200.0 µM.
By solubility (kinetic) is commonly meant the concentration staying in solution when a stock, usually in DMSO, is diluted into the medium. In the case of `COc1cccc(/C=C/C(=O)Nc2ccc3[nH]c(=O)[nH]c3c2)c1`, the kinetic solubility turned out to be 6.7 µg/mL (≈ 21.7 µM).

As for `O=C(COC(=O)c1ccc[nH]c1=O)NCCC1=CCCCC1`, the kinetic solubility came to 41.1 µg/mL (≈ 135 µM).

Turning to `Cc1c(Cl)ccc(S(=O)(=O)Nc2cccnc2)c1Cl`, the solubility (kinetic) came out at 5.1 µg/mL (≈ 16.1 µM).

With `CCOP(=O)(c1ccc(N(C)C)cc1)C(O)c1cccnc1` (configuration not stated), the kinetic solubility was over 48 µg/mL.

As for `CCOC(Cn1ccc(=O)[nH]c1=O)OCC`, the kinetic solubility is over 34.2 µg/mL.

As for `Cc1ccc(C(=O)CSc2nc(O)cc(=O)[nH]2)cc1C`, the kinetic solubility is over 43.6 µg/mL.

For `S=C(c1ccc(OCc2ccccc2)cc1)N1CCCC1`, the solubility (kinetic) is under 0.6 µg/mL.

On to `Cc1cc(NC(=O)C2CC(=O)N(c3ccc(Cl)cc3)C2)no1` (configuration not stated), for which the kinetic solubility turned out to be 31 µg/mL (≈ 97 µM).

The molecule `CCN(CC)c1cc(C)c2cc(NC(=O)c3cccs3)ccc2n1` returned a kinetic solubility of under 0.2 µg/mL.

`O=C(NCC(c1ccco1)N1CCc2ccccc21)c1cccc(F)c1` (configuration not stated): the kinetic solubility turned out to be 16.3 µg/mL (≈ 46.5 µM).

Regarding `CC(C)CN(CC(C)C)C(=O)Nc1ccc(F)cc1F`, the kinetic solubility worked out at 33.2 µg/mL (≈ 117 µM).

For the molecule `COc1ccccc1/C=C/C(=O)NC1CC2CCC1C2` (configuration not stated), the solubility (kinetic) turned out to be 2 µg/mL (≈ 7.37 µM).

Molecule `O=C1CCCC2=C1C(c1ccc(O)c(O)c1)Nc1ccc3ccccc3c12` (configuration not stated) registered a kinetic solubility of 47.3 µg/mL (≈ 132 µM).

`O=c1c2cc(NC(=S)NC3CC3)ccc2nc2n1CCCCC2` registered a solubility (kinetic) of 34.7 µg/mL (≈ 106 µM). This solubility kinetic and that of the molecule before are within 1.5-fold of each other.

`CC/C(O)=C1\C(=O)CCCC1=NCCc1c(C)[nH]c2ccc(C)cc12` came in with a kinetic solubility of 3.3 µg/mL (≈ 9.75 µM).

Turning to `COc1cccc(N2C(=O)CC(Sc3nc(C)cc(C)n3)C2=O)c1` (configuration not stated), the solubility (kinetic) is over 51.5 µg/mL.

On to `CCC1Oc2ccc(C)cc2N(CC(=O)NCC2CCCO2)C1=O` (configuration not stated), for which the kinetic solubility is 43.6 µg/mL (≈ 131 µM).

With `O=C(c1cccc(F)c1)N1CCC(c2nc3ccccc3s2)CC1`, the solubility (kinetic) was over 51.1 µg/mL.

Regarding `CNC(=O)C1CC(=O)N(CCc2ccc(C)cc2)C1` (configuration not stated), the solubility (kinetic) was over 39.1 µg/mL.

As to `CCN1CCN(C(=O)C2CC(=O)N(c3ccc(Cl)cc3)C2)CC1` (configuration not stated), the kinetic solubility is over 50.4 µg/mL.

Molecule `Cc1ccc(NC(=O)C2COc3ccccc3O2)c(C)c1` (configuration not stated) displayed a kinetic solubility of 33 µg/mL (≈ 116 µM).

`COc1ccc(NC(=O)c2cc(-c3ccccc3)on2)cc1` showed a solubility (kinetic) of under 0.3 µg/mL.

On to `CC(=O)Nc1ccc(S(=O)(=O)N2CCCC2)cc1`, for which the solubility (kinetic) was over 40.2 µg/mL.

`Cc1ccnc(NC2(C(F)(F)F)N=C3SCCN3C2=O)c1` (configuration not stated) returned a solubility (kinetic) of over 47.4 µg/mL.

Molecule `C[C@H](NS(=O)(=O)c1ccc(F)cc1)C(=O)OCC(=O)c1c(N)n(C)c(=O)n(C)c1=O` came in with a solubility (kinetic) of over 66.4 µg/mL.

The molecule `CC(C)CC(=O)Nc1cccc(-c2nc3ncccc3o2)c1` came in with a solubility (kinetic) of 31.8 µg/mL (≈ 108 µM).

`COc1ccc(OCC(=O)NC2CCCc3ccccc32)cc1` (configuration not stated): the kinetic solubility worked out at 42.4 µg/mL (≈ 136 µM).

The molecule `Cc1cccc(N(Cc2cc(=O)[nH]c3ccccc23)C(=O)C(C)C)c1` came in with a solubility (kinetic) of 36.3 µg/mL (≈ 109 µM).

On to `O=S(=O)(c1ccc(Cl)cc1)N1CCN(c2ncnc3sccc23)CC1`, for which the kinetic solubility was 7 µg/mL (≈ 17.7 µM).

Molecule `Cc1cccc(N)c1-c1c(C)cccc1N` came in with a kinetic solubility of over 31.8 µg/mL.

On to `CC1CCc2sc(C(=O)OCC(=O)NC(N)=O)cc2C1` (configuration not stated), for which the solubility (kinetic) came out at 2 µg/mL (≈ 6.75 µM).

On to `CN=C(Nc1cccnc1)c1cccc(C(F)(F)F)c1`, for which the kinetic solubility was over 41.9 µg/mL.

With `CC(=O)N(CCCN(C)C)Cc1ccccn1`, the kinetic solubility was 30 µg/mL (≈ 127 µM).

`O=C(N/C(=C\c1ccco1)C(=O)N1CCCCC1)c1ccc([N+](=O)[O-])cc1` had a solubility (kinetic) of 3.6 µg/mL (≈ 9.75 µM).

`CN1[C@@H](CC(=O)c2ccccc2)CCC[C@H]1C[C@H](O)c1ccccc1.Cl`: the solubility (kinetic) was over 56.1 µg/mL.

`CC(=O)N(Cc1cccs1)Cc1cc2cc(C)c(C)cc2nc1Cl` showed a solubility (kinetic) of 4.3 µg/mL (≈ 12 µM).

`Cc1ccccc1NC(=O)NCCCN1CCCC1=O` displayed a solubility (kinetic) of over 41.3 µg/mL.

`COc1ccc2c(ccn2S(=O)(=O)c2ccccc2)c1` yielded a solubility (kinetic) of 1.6 µg/mL (≈ 5.57 µM).

`O=C(CSC(=S)N1CCCC1)NCCc1ccccc1`: the kinetic solubility is over 46.3 µg/mL.

For the molecule `CCC(Oc1ccccc1OC)C(=O)Nc1ccc2c(c1)OCO2` (configuration not stated), the kinetic solubility stood at 26.3 µg/mL (≈ 79.9 µM).

Consider `O=C(CNS(=O)(=O)c1cccc(C(F)(F)F)c1)NC1CCCCCC1`, for which the solubility (kinetic) was 48.7 µg/mL (≈ 129 µM).

`CCN(CC)C(=O)CN(C#N)c1nc(Cl)nc(N(C)C)n1` had a solubility (kinetic) of 41.3 µg/mL (≈ 132 µM).

Take `O=C(O)c1cc(Cl)nc2ccccc12`: the solubility (kinetic) is over 31.1 µg/mL.

Regarding `CCN1C(=O)CSC1=Nc1ccccc1Cl`, the kinetic solubility was determined as 27.9 µg/mL (≈ 110 µM).

As for `O=C1c2ccccc2C(=O)N1CCOc1ccccc1Cl`, the solubility (kinetic) is 3.5 µg/mL (≈ 11.6 µM).

With `COc1ccc(C(=O)Nc2cc(-c3ccc(C)cc3)no2)cc1`, the solubility (kinetic) was under 0.3 µg/mL.

Regarding `O=[N+]([O-])c1ccc(C2=CSC3=NCCN23)cc1`, the kinetic solubility came to 31.2 µg/mL (≈ 126 µM).

Molecule `O=c1c(-c2ccccc2)cnc2n1CCS2` returned a kinetic solubility of over 34.5 µg/mL.

The molecule `Cc1ccc(C(=O)Nc2nccs2)s1` displayed a solubility (kinetic) of 9.6 µg/mL (≈ 42.8 µM).

Take `O=C(O/N=C/c1ccc(Cl)cc1)C1CCCCC1`: the solubility (kinetic) came to 2.4 µg/mL (≈ 9.03 µM).

Take `O=C(COc1ccc([N+](=O)[O-])cc1Cl)NCCN1C(=O)CSC1=O`: the kinetic solubility is over 56.1 µg/mL.

Molecule `O=C(CN1C(=O)NC2(CCCC2)C1=O)Nc1ccc(Cl)cc1F` registered a kinetic solubility of 49.8 µg/mL (≈ 147 µM).
